Drawing on PubChem BioAssay (NCI), this text covers GI50 and TGI for 35 molecules.

Where “and” joins values, the source holds several entries; their conditions need not be identical. Equal values may be shown once.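 Dose response: 5 concentrations. Exposure: 48 h. Format: 96-well plates. Endpoint: linear interpolation; highest concentration if not reached. GI50 = concentration required for 50% inhibition of growth. TGI: total growth inhibition.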 A value given as a limit tells only on which side of the number the result lay.

The subject of the assay is MDA-MB-468 breast. The assay can be described thus: inhibition of tumour cell growth, NCI panel, 48 h.

`COc1cc(C(=O)/C=C/c2c(C)n([O-])c3ccc(C(F)(F)F)cc3[n+]2=O)cc(OC)c1OC`: the GI50 was 1590 nM and the TGI is 3490 nM. Regarding `CCOC(=O)Nc1nc2cc(OC)c(OC)c(OC)c2s1`, the GI50 is over 100000 nM and the TGI is over 100000 nM. On to `CC(=O)Nc1cccc(C#Cc2cncnc2Nc2ccc(OCc3cccc(F)c3)c(Cl)c2)n1`, for which the GI50 is 557 nM and the TGI was over 6260 nM. Take `C[C@]12CC[C@@H]3c4ccc(O)cc4CC[C@H]3[C@@H]1CC[C@@H]2NS(=O)(=O)c1cccc(OC(F)(F)F)c1`: the GI50 is 2610 nM and the TGI turned out to be 8010 nM. The like results for `COc1ccc(C(O)c2cc3c(N)c(C(=O)Nc4ccc(Br)cc4)sc3nc2C)cc1` (centres undefined) were, in that order, 2190 nM and 9090 nM. With `FC(F)(F)c1cc(Nc2cccc(Oc3ccc(NC4=NCCN4)nc3)c2)ccc1Cl`, the GI50 was 1610 nM and the TGI is 3440 nM. `CC#CC#Cc1cccc(=O)o1`: the GI50 was 1710 nM and the TGI came to 5320 nM. With `CN1CCN(Cc2ccc(NC(=O)c3cncc(C#Cc4cnc5ccc(N6CCN(C)CC6)nn45)c3)cc2C(F)(F)F)CC1`, the GI50 is 1380 nM and the TGI is 2760 nM.

Consider `CCCOC(=O)c1ccc2c(c1)[N+](=O)C(C(=O)c1ccccc1)=C(C(F)(F)F)[N+]2=O`, for which the GI50 was 1710 nM and the TGI was 3510 nM. For the molecule `O=C(Nc1ccc(OCc2nnc(-c3ccc(Cl)cc3)o2)c(F)c1)Nc1ccc(Cl)c(Cl)c1`, the GI50 is 2990 nM and the TGI stood at 17700 nM. For `Cc1ccc2cc3c(N)c4c(C)ccc(C)c4nc3nc2c1`, the GI50 is 1470 nM and the TGI is 3730 nM.

`O=C(/C=C/c1cccc(O)c1)c1cccc(-n2cc(-c3ccc(Cl)cc3)[nH]c2=O)c1`: the GI50 is 1700 nM and the TGI came to 3830 nM. As to `CC(C)OC(=O)Nc1ccc(-c2nc(-c3cccc(OCCN4CCOCC4)c3)c(-c3ccnc(Br)c3)[nH]2)cc1`, the GI50 is 2010 nM and the TGI amounted to 5300 nM. In the case of `CCN(CC)CCNc1ccc(C)c2sc3ccccc3c(=O)c12` (tested in a mixture with another compound), the GI50 was 2060 nM and 1980 nM; the TGI was 4220 nM and 4300 nM. For the molecule `COC(=O)c1ccc2[nH]c(O)c(C(=Nc3ccc(N(C)C(=O)CN4CCN(C)CC4)cc3)c3ccc(OC)cc3)c2c1`, the GI50 was 1600 nM and the TGI was determined as 3350 nM. Take `Nc1nonc1-c1nc2cnccc2n1C1CCCCC1`: the GI50 is 6940 nM and the TGI was over 25000 nM.

Turning to `C[C@@H]1CN(c2ccc3ncc(C#Cc4cncc(C(=O)Nc5ccc(CN6CCN(C)CC6)c(C(F)(F)F)c5)c4)n3n2)C[C@H](C)O1`, the GI50 was 35.5 nM and the TGI was 136 nM. For `Cc1cc2nc3c4cc(C=O)ccc4n(CCN(C)C)c3nc2cc1C`, the GI50 was 1160 nM and the TGI came to 3210 nM.

Take `C=CCSSC1N=CNc2nc[nH]c21` (centres undefined): the GI50 is 319 nM and the TGI amounted to 14700 nM.

With `Clc1ccc(-c2ccc(CNCC3CCNCC3)o2)c(-c2ccccc2)c1`, the GI50 was 1570 nM and the TGI worked out at 3250 nM.

As for `CCOC(=O)c1ccc2c(c1)c1c(C)c3cnccc3c(C)c1n2C`, the GI50 is 289 nM and the TGI stood at 962 nM. Take `CC[C@H](Nc1cc(C)nc(N)n1)c1nc2cccc(NCc3ccc(C(=O)NO)cc3)c2c(=O)n1-c1ccccc1`: the GI50 was 1460 nM and the TGI worked out at 3240 nM. For `CC/C(=C(\c1ccc(Cl)cc1)c1ccc(OCCN2CCCCC2)cc1)c1ccc(O)cc1`, in that order: 1650 nM and 3320 nM. Turning to `CCCc1n(Cc2ccc3ccccc3c2)c2ccccc2[n+]1Cc1ccc2ccccc2c1`, the GI50 is 130 nM and the TGI was determined as 716 nM. With `CC(=O)N1CCN([C@H]2CCC[C@@H](NC(=O)c3cc4c(F)ccc(C)c4[nH]3)C2)CC1`, the GI50 was 9060 nM and the TGI came out at 37200 nM. As for `Cn1cc(C2=C(c3cn(C)c4ccc(OCc5ccccc5)cc34)C(=O)NC2=O)c2ccccc21`, the GI50 was over 25000 nM and the TGI is over 25000 nM. Consider `COC12COC(=O)C1C(c1ccc3c(c1)OCO3)c1cc3c(cc1O2)OCO3` (centres undefined), for which the GI50 was 23000 nM and the TGI is over 100000 nM.

In the case of `C=CC(=O)N1CC2(CCC(n3nc(-c4ccc(Oc5ccccc5)cc4)c4c(N)ncnc43)CC2)C1`, the GI50 is 244 nM and the TGI amounted to 1620 nM.

As for `CC(=O)O[C@H]1C(=O)[C@@]2(C)[C@H]([C@H](OC(=O)c3ccccc3)[C@]3(O)C[C@H](OC(=O)[C@H](OC(=O)OC[C@@H]4COC(C)(C)O4)[C@@H](NC(=O)c4ccccc4)c4ccccc4)C(C)=C1C3(C)C)[C@]1(OC(C)=O)CO[C@@H]1C[C@@H]2O`, the GI50 was 28 nM. As to `Cc1ccc2c(c1)c(C1=C(c3cn(C)c4ccccc34)C(=O)NC1=O)cn2C`, the GI50 is 1030 nM and the TGI was over 12600 nM. With `COC(=O)/C=C1/SC(=Nc2ccc(C(F)(F)F)cc2)N(CCc2c[nH]c3ccc(O)cc23)C1=O`, the GI50 is 2110 nM and the TGI came out at 5720 nM. Consider `COC(=O)C(=Cc1ccccc1[N+](=O)[O-])C(=O)OC`, for which the GI50 is 5030 nM and the TGI turned out to be 28200 nM. Turning to `O=C1C=C(Nc2ccc([N+](=O)[O-])cc2)c2ccccc2C1=O`, the GI50 was 3050 nM and the TGI stood at 13400 nM.

As to `COc1ccc(/C=C/C(=O)c2ccc(NC(=O)CSc3nnc(-c4ccc(OC)c(OC)c4)n3-c3ccccc3)cc2)cc1`, the GI50 was 1960 nM and the TGI was 4550 nM.

For `COc1ccc(C2C(C#N)=C(N)Oc3c2sc2c(C)cccc32)cc1` (centres undefined), the GI50 was 214 nM and the TGI is 641 nM.
